Assay results taken from US6835398B2, “Method of administering high-dose, oral magnesium for treatment of chronic pain syndrome of erythromelalgia” (priority 2001, dated 2004).
“Also recorded” adds a separate entry of the source.

What was measured:
[1] = test system: patient with CRPS1 / erythromelalgia (EM); test: Case study patient #1 (CRPS1/EM): pain and symptom response; type: in vivo, human
From the text: A magnesium treatment regimen was then investigated.
When the infusions were postponed, small doses of the MgSO4 solution was mixed with water and ingested orally.

[2] = test system: patients with erythromelalgia (EM); test: Tolerability of oral magnesium products in patients (diarrhea, adverse effects, achievable dose)
From the text: (§1) Thirteen patients took nonprescription magnesium oxide ([…]) or magnesium-protein (Mg-protein) products in gradually escalating and divided doses totaling 0.6-5 grams/day elemental magnesium under their physicians' supervision.
(§2) Although magnesium's potential benefits for many disorders have been described, patients' lack of tolerance to traditional therapeutic doses has precluded widespread utilization. Indeed, some patients have difficulty tolerating the RDA of magnesium. […] All doses were divided and taken at 4-6 hour intervals with copious amounts of water. All patients had normal renal function, which is required for undertaking magnesium therapy.

[3] = test system: patients with erythromelalgia (EM); test: High-dose oral magnesium therapy in erythromelalgia patients: pain and symptom response; type: in vivo, human; details: for worsening of EM: one patient
From the text: as §1
Specifically, it is most important that the magnesium compound (sulfate, oxide, carbonate, etc.) be either very finely divided or dissolved. […] Ideally, dosing should begin at RDA levels and increased as tolerance increases, until pain and/or symptom reduction is achieved. This level can then be maintained longterm. This pain reduction and long term dosing can begin as low as 600 mg elemental Mg/day and may be increased until gastrointestinal distress resulting from administration is consistent. This may occur at a dosage as high as 5 g/day elemental magnesium or even higher. Preferably, at least 1 gm magnesium/day should be administered, more preferably 1.2 gm, more preferably 1.5 gm, still more preferably 2 gm Mg/day. Still more preferably 2.5 gm Mg/day, and most preferably at least 3 gm Mg/day should be administered. To reduce the likelihood of gastrointestinal distress, daily dosages should be divided into several smaller administrations of not more than 500 mg elemental magnesium, preferably not more than 250 mg, and more preferably not more than […] Magnesium per dose. These can be administered several times daily to achieve the correct total daily dose. Small doses taken every 1-2 hours can be used, as can slightly larger doses taken every 4-6 hours. The frequency and size of doses is not as important as the total daily dose, provided the patient can tolerate the regimen.
as §2

subjects = details: 250 mg two times daily, oral, one study; cited from earlier work

O=S(=O)([O-])[O-].[Mg+2] [MgSO4, magnesium sulfate]
pain and symptom response [1]: Pain was completely eliminated; also recorded: nearly total remission from EM | adverse effects ([2]; patient #1): only occasional, mild adverse effects (loose stools, blurred vision) | daily dose reached ([2]; patient #1, 50% MgSO4 solution mixed with water, oral, increased very gradually): 12 grams MgSO4/day | serum magnesium measurements (patient #1, also two hours after ingesting two grams of MgSO4): normal | repeated chemistries and urine studies (patient #1, up to 12 grams/day orally): normal

COc1ccc([C@@H]2Sc3ccccc3N(CCN(C)C)C(=O)[C@@H]2OC(C)=O)cc1 [diltiazem]
worsening of EM [3]: worsening | pain and symptom response [1]: greater, but still limited, benefit

[O]=[Mg] [magnesium oxide]
pain and function response ([3]; person with CIPD and severe EM, escalating doses to 4-5 grams/day): significantly less pain and improved function | pain and flaring response ([3]; person with EM, escalating doses to 4-5 grams/day, within two weeks): marked reduction in pain and flaring | dose reached ([2]; one patient unable to tolerate 2 grams of magnesium tablets, blended in water): 4.5 grams/day

[Mg+2] [magnesium]
patients who improved ([3]; 4 of the 6 patients who reached doses above 1 gram/day (1.2 to 7 grams/day)): 67% | patients who obtained benefit ([3]; 6 of 8 who reached therapeutic levels, with the two already known cases): 75% | patients who obtained substantial pain reduction and improvement in other symptoms ([3]; escalating divided doses totaling 0.6-5 grams/day elemental magnesium, 13 refractory patients): eight of these thirteen | worsening of EM [3]: worsened | effectiveness and tolerability compared with nifedipine and/or diltiazem ([3]; patients who had previously received nifedipine and/or diltiazem): more effective and better tolerated | patients who reported improvement ([3]; six of 11 EM patients, after 2 months): 55% | adverse effects in subjects (subjects): 45.7%
